Laboratory results as given in ChEMBL document CHEMBL3885861, “Open TG-GATES”.

Organism: Rattus norvegicus
Experiment: Open TG-GATES - Regimen: Single
Type: toxicity, organism-based, Sprague-Dawley
Parameters: regimen Single, gender Male, age 6 weeks
Settings: in vivo, po, 25 mg/kg, route gavage, dose level Low; for APTT / Bas / Eos / Fbg / Hb / Ht / Lym / MCH / MCHC / MCV / Mono / Neu / PT / Plat / RBC / Ret / WBC: tissue Blood; for KIDNEY_L / KIDNEY_R / KIDNEY_TOTAL: tissue Kidney; for LIVER: tissue Liver; for ALP / ALT / AST / BUN / CRE / DBIL / GLC / K / Na / PL / RALB / TBIL / TC / TG / TP / gamma-GTP: tissue Plasma

For CN1C(=O)CN=C(c2ccccc2)c2cc(Cl)ccc21 [DIAZEPAM], the TERMINAL_BW (3 h) was 218.9 g, the APTT (3 h) was 16.3 s and the Bas (3 h) was 0%. It also gave an Eos (3 h) of 1.2%, a Fbg (3 h) of 227 mg/dL and a Hb (3 h) of 13.9 g/dL. It also gave a Ht (3 h) of 41.8%, a Lym (3 h) of 76.6% and an MCH (3 h) of 21.8 pg. The MCHC (3 h) was 33.2%, the MCV (3 h) was 65.8 fL and the Mono (3 h) was 7.8%. It also gave a Neu (3 h) of 14.8%, a PT (3 h) of 12.4 s and a Plat (3 h) of 98.7 x10_4/uL. It also gave an RBC (3 h) of 636.6 x10_4/ul, a Ret (3 h) of 8.7% and a WBC (3 h) of 93.5 x10_2/uL. The KIDNEY_L (3 h) was 1 g, the KIDNEY_R (3 h) was 1 g and the KIDNEY_TOTAL (3 h) was 1.9 g. The LIVER (3 h) was 10.3 g, the ALP (3 h) was 763.4 IU/L and the ALT (3 h) was 30 IU/L. For the same molecule, the AST (3 h) was 57.8 IU/L, the BUN (3 h) was 13.2 mg/dL and the CRE (3 h) was 0.5 mg/dL. It also gave a DBIL (3 h) of 0.018 mg/dL, a GLC (3 h) of 195.4 mg/dL and a K (3 h) of 5.3 meq/L. It also gave a Na (3 h) of 139 meq/L, a PL (3 h) of 150.2 mg/dL and an RALB (3 h) of 3.7 g/dL. The TBIL (3 h) was 0.4 mg/dL, the TC (3 h) was 83.2 mg/dL and the TG (3 h) was 66.2 mg/dL. It also gave a TP (3 h) of 5.5 g/dL, a gamma-GTP (3 h) of 2 IU/L and a TERMINAL_BW (6 h) of 216.1 g. For the same molecule, the APTT (6 h) was 16.3 s, the Bas (6 h) was 0% and the Eos (6 h) was 0.6%. For the same molecule, the Fbg (6 h) was 217 mg/dL, the Hb (6 h) was 13.9 g/dL and the Ht (6 h) was 42%. For the same molecule, the Lym (6 h) was 79.4%, the MCH (6 h) was 21.6 pg and the MCHC (6 h) was 33%. For the same molecule, the MCV (6 h) was 65.2 fL, the Mono (6 h) was 5.6% and the Neu (6 h) was 14.8%. The PT (6 h) was 12.1 s, the Plat (6 h) was 110.2 x10_4/uL and the RBC (6 h) was 643.4 x10_4/ul. It also gave a Ret (6 h) of 8.1%, a WBC (6 h) of 117.8 x10_2/uL and a KIDNEY_L (6 h) of 0.9 g. It also gave a KIDNEY_R (6 h) of 1 g, a KIDNEY_TOTAL (6 h) of 1.9 g and an LIVER (6 h) of 9.8 g. For the same molecule, the ALP (6 h) was 989.8 IU/L, the ALT (6 h) was 30.8 IU/L and the AST (6 h) was 64.6 IU/L. It also gave a BUN (6 h) of 12 mg/dL, a CRE (6 h) of 0.5 mg/dL and a DBIL (6 h) of 0.058 mg/dL. For the same molecule, the GLC (6 h) was 202.2 mg/dL, the K (6 h) was 5.3 meq/L and the Na (6 h) was 138.6 meq/L. The PL (6 h) was 143.4 mg/dL, the RALB (6 h) was 3.8 g/dL and the TBIL (6 h) was 0.4 mg/dL. The TC (6 h) was 77.2 mg/dL, the TG (6 h) was 67.4 mg/dL and the TP (6 h) was 5.7 g/dL. The gamma-GTP (6 h) was 1 IU/L, the TERMINAL_BW (9 h) was 212.2 g and the APTT (9 h) was 16.6 s. For the same molecule, the Bas (9 h) was 0%, the Eos (9 h) was 0.6% and the Fbg (9 h) was 229.8 mg/dL. The Hb (9 h) was 13.8 g/dL, the Ht (9 h) was 41.7% and the Lym (9 h) was 78.8%. The MCH (9 h) was 21.6 pg, the MCHC (9 h) was 33% and the MCV (9 h) was 65.4 fL. The Mono (9 h) was 6.2%, the Neu (9 h) was 14.4% and the PT (9 h) was 12.2 s. For the same molecule, the Plat (9 h) was 102.9 x10_4/uL, the RBC (9 h) was 638.2 x10_4/ul and the Ret (9 h) was 7.5%. For the same molecule, the WBC (9 h) was 107.6 x10_2/uL, the KIDNEY_L (9 h) was 1 g and the KIDNEY_R (9 h) was 1 g. For the same molecule, the KIDNEY_TOTAL (9 h) was 2 g, the LIVER (9 h) was 9.4 g and the ALP (9 h) was 723.6 IU/L. It also gave an ALT (9 h) of 26 IU/L, an AST (9 h) of 57.2 IU/L and a BUN (9 h) of 12.4 mg/dL. It also gave a CRE (9 h) of 0.6 mg/dL, a DBIL (9 h) of 0.044 mg/dL and a GLC (9 h) of 212.6 mg/dL. For the same molecule, the K (9 h) was 4.8 meq/L, the Na (9 h) was 139.6 meq/L and the PL (9 h) was 142 mg/dL. For the same molecule, the RALB (9 h) was 3.9 g/dL, the TBIL (9 h) was 0.3 mg/dL and the TC (9 h) was 83.8 mg/dL. The TG (9 h) was 44.8 mg/dL, the TP (9 h) was 5.7 g/dL and the gamma-GTP (9 h) was 1.6 IU/L. The TERMINAL_BW (24 h) was 227.7 g, the APTT (24 h) was 16.3 s and the Bas (24 h) was 0%. The Eos (24 h) was 1%, the Fbg (24 h) was 219.6 mg/dL and the Hb (24 h) was 13.4 g/dL. It also gave a Ht (24 h) of 40.4%, a Lym (24 h) of 81% and an MCH (24 h) of 21.7 pg. The MCHC (24 h) was 33.1%, the MCV (24 h) was 65.7 fL and the Mono (24 h) was 5.6%. It also gave a Neu (24 h) of 12.2%, a PT (24 h) of 12.2 s and a Plat (24 h) of 105.2 x10_4/uL. It also gave an RBC (24 h) of 616 x10_4/ul, a Ret (24 h) of 8.5% and a WBC (24 h) of 100.5 x10_2/uL. It also gave a KIDNEY_L (24 h) of 1 g, a KIDNEY_R (24 h) of 1.1 g and a KIDNEY_TOTAL (24 h) of 2.1 g. It also gave an LIVER (24 h) of 11.2 g, an ALP (24 h) of 1114.4 IU/L and an ALT (24 h) of 33.8 IU/L. The AST (24 h) was 63 IU/L, the BUN (24 h) was 16.6 mg/dL and the CRE (24 h) was 0.5 mg/dL. The DBIL (24 h) was 0.016 mg/dL, the GLC (24 h) was 185.6 mg/dL and the K (24 h) was 5.1 meq/L. It also gave a Na (24 h) of 140 meq/L, a PL (24 h) of 152.8 mg/dL and an RALB (24 h) of 3.7 g/dL. It also gave a TBIL (24 h) of 0.3 mg/dL, a TC (24 h) of 82.2 mg/dL and a TG (24 h) of 108.6 mg/dL. The TP (24 h) was 5.8 g/dL and the gamma-GTP (24 h) was 1.2 IU/L.
